Experimental data: patent US4531001A, “2-β-D-ribofuranosylselenazole-4-carboxamide compounds” (priority 1983, dated 1985)
≈ marks a conversion by molar mass, not a printed value. Where “and” joins values, the source holds several entries; their conditions need not be identical. Equal values may be shown once. Read-outs that look alike come from different tables or passages of the source.

Legend:
L-1210 = assay: Growth inhibition in suspension cell culture, L-1210; type: cell-based; conditions: Mus musculus, L1210, 72 hours, cell count 50 percent of untreated control, read-out: ID50 (the source's name)
Method: (§1) In further tests, growth-inhibitory effects of COMPOUND 1 and COMPOUND 2 were measured against 3 mouse tumor lines in suspension cell culture. Cell cultures were initiated at a density of 50,000 cells/ml in medium RPMI 1630 supplemented with 10 percent fetal calf serum. Composition of this culture medium and details of the culture procedure followed the published method (G. E. Moore, A. A. Sandberg and K. Ulrich, Suspension Cell Culture and in vivo and in-vitro chromosome constitution of mouse leukemia L1210, Journal of the National Cancer Institute 36, 405-415, 1966). Cultures were maintained at 37 degrees in stationary suspension culture under a 95 percent air+5 percent CO2 atmosphere. Test compounds were added to treated cultures at the time of initiation, and were present continually. After 72 hours, 40-fold dilutions of drug-treated and untreated control cultures were prepared in 0.9 percent NACl solution, and cells were counted on an electronic particle counter. The growth-inhibitory effects are expressed as ID50 values, namely, test compound inhibitory dosages or concentrations required to decrease cell count in treated cultures to 50 percent of the cell count of untreated control cultures.

Hela cells = assay: Toxicity to Hela cells; conditions: 1000 ug/ml (highest concentration tested)
[1] = Solubility in aqueous media
MRC-5 cells = assay: Toxicity to MRC-5 cells; conditions: 1000 ug/ml (highest concentration tested)
Lewis lung carcinoma = assay: Lewis lung in vivo mouse model, low doses, Example 13 (Table III); parameters: species or system B6 D2 F1 female mice; conditions: for Treated Group Survival Time: control 20.2
Method: As illustrative examples of the antitumor use of COMPOUNDS 1 and 2, Examples 12 through 14, below, are given. […] The tests utilized in these illustrative examples were conducted by the Developmental Therapeutics Program, Division of Cancer Treatment, National Cancer Institute. The tests were supervised by this agency utilizing their standard protocols and procedures. All tests conformed to these protocols and all tests were evaluated under the criteria defined by these protocols. The following representative examples illustrate confirmed activity of the illustrative compounds of the invention against screening tumor systems of the National Cancer Institute.
For purposes of the following examples, the abbreviation IP stands for intraperitoneal and IV stands for intravenous. The mean and median survival times are calculated in instruction 14 (revised 6/78) of the Screening Data Summary, Developmental Therapeutics Program, Division of Cancer Treatment, National Cancer Institute. The contents of this Screening Data Summary including appropriate revisions are herein incorporated by reference.
In the illustrated examples below, the vehicle used as carrier for the drug was injected (minus any drug therein) into the control animals at the same level of use of the vehicle in the drug treated animals in order to eliminate any vehicle effect of the tests.
COMPOUND 1 was further tested in a Lewis lung in vivo mouse model using B6 D2 F1 female mice challenged with Lewis lung carcinoma.

Para 3 = assay: Antiviral activity (virus rating method); type: cell-based; conditions: for Virus Rating: >1.0 definite, 0.5-0.9 moderate, <0.5 slight or no activity; for EC50: read-out: ED50 (the source's name)
Source text: (§2) Microbiol. 22, 797 (1971). A virus rating that is greater than 1.0 indicates definite antiviral activity. […] The results reported below were obtained by testing on Microtest II (Falcon Plastics) plastic panels with a monolayer of Vero or HeLa cells.

Reo 3 = assay: Antiviral activity (virus rating method); type: cell-based; conditions: for Virus Rating: >1.0 definite, 0.5-0.9 moderate, <0.5 slight or no activity; for EC50: read-out: ED50 (the source's name)
Source text: as §2

HSV-1 = assay: Antiviral activity (virus rating method); type: cell-based; conditions: for Virus Rating: >1.0 definite, 0.5-0.9 moderate, <0.5 slight or no activity; for EC50: read-out: ED50 (the source's name)
Source text: as §2

Mumps = assay: Antiviral activity (virus rating method); type: cell-based; conditions: for Virus Rating: >1.0 definite, 0.5-0.9 moderate, <0.5 slight or no activity; for EC50: read-out: ED50 (the source's name)
Source text: as §2

Ad-2 = assay: Antiviral activity (virus rating method); type: cell-based
Source text: as §2

Cox B1 = assay: Antiviral activity (virus rating method); type: cell-based; conditions: for Virus Rating: >1.0 definite, 0.5-0.9 moderate, <0.5 slight or no activity; for EC50: read-out: ED50 (the source's name)
Source text: as §2

HSV-2 = assay: Antiviral activity (virus rating method); type: cell-based; conditions: for Virus Rating: >1.0 definite, 0.5-0.9 moderate, <0.5 slight or no activity; for EC50: read-out: ED50 (the source's name)
Source text: as §2

VV = assay: Antiviral activity (virus rating method); type: cell-based; conditions: for Virus Rating: >1.0 definite, 0.5-0.9 moderate, <0.5 slight or no activity; for EC50: read-out: ED50 (the source's name)
Source text: as §2

Measles = assay: Antiviral activity (virus rating method); type: cell-based; conditions: for Virus Rating: >1.0 definite, 0.5-0.9 moderate, <0.5 slight or no activity; for EC50: Measles morbillivirus, read-out: ED50 (the source's name)
Source text: as §2

Cox B4 = assay: Antiviral activity (virus rating method); type: cell-based; conditions: for Virus Rating: >1.0 definite, 0.5-0.9 moderate, <0.5 slight or no activity
Source text: as §2

P388 = assay: Growth inhibition in suspension cell culture, P388; type: cell-based; conditions: Mus musculus, 72 hours, cell count 50 percent of untreated control, read-out: ID50 (the source's name)
Method: as §1

[2] = HeLa, read-out: ED50 (the source's name)

For `NC(=O)c1c[se]c([C@@H]2O[C@H](CO)[C@@H](O)[C@H]2O)n1` [COMPOUND 1, 2-β-D-ribofuranosylselenazole-4-carboxamide], the IC50 (L-1210) was 400 nM, the toxicity to cells (Hela cells) was “non-toxic” and the “solubility in aqueous media” value [1] was “soluble in aqueous media”. The toxicity to cells (MRC-5 cells) was “non-toxic”, the Cures (Lewis lung carcinoma; 0.75 mg/kg) was 0/10 and the “Percent Treated Animals/Control Animals (T/C)” value (Lewis lung carcinoma; 0.75 mg/kg) was 107%. For the same molecule, the “Treated Group Survival Time” value (Lewis lung carcinoma; 0.75 mg/kg) was 21.7, the Cures (Lewis lung carcinoma; 1.50 mg/kg) was 0/10 and the “Percent Treated Animals/Control Animals (T/C)” value (Lewis lung carcinoma; 1.50 mg/kg) was 110%. The “Treated Group Survival Time” value (Lewis lung carcinoma; 1.50 mg/kg) was 22.3, the Cures (Lewis lung carcinoma; 3.00 mg/kg) was 0/10 and the “Percent Treated Animals/Control Animals (T/C)” value (Lewis lung carcinoma; 3.00 mg/kg) was 153%. For the same molecule, the “Treated Group Survival Time” value (Lewis lung carcinoma; 3.00 mg/kg) was 31.0, the DN2 level activity (Lewis lung carcinoma; 3 mg/kg, percent T/C greater than 150) was “achieved DN2 level activity” and the Cures (Lewis lung carcinoma; 6.00 mg/kg) was 5 out of 10 and 5/10. The “Percent Treated Animals/Control Animals (T/C)” value (Lewis lung carcinoma; 6.00 mg/kg) was 297%, the “Treated Group Survival Time” value (Lewis lung carcinoma; 6.00 mg/kg) was 60.0 and the Cures (Lewis lung carcinoma; 12.00 mg/kg) was 9/10. The “Percent Treated Animals/Control Animals (T/C)” value (Lewis lung carcinoma; 12.00 mg/kg) was 297%, the “Treated Group Survival Time” value (Lewis lung carcinoma; 12.00 mg/kg) was 60.0 and the Cures (Lewis lung carcinoma; 24.00 mg/kg) was 9 out of 10 and 9/10. The “Percent Treated Animals/Control Animals (T/C)” value (Lewis lung carcinoma; 24.00 mg/kg) was 297%, the “Treated Group Survival Time” value (Lewis lung carcinoma; 24.00 mg/kg) was 60.0 and the “antitumor activity in words” value (Lewis lung carcinoma; mouse, in vivo) was “effective antitumor agent”. The “Virus Rating” value (Para 3; HeLa) was 2.2, the EC50 (Para 3; HeLa) was 1 µg/mL (≈ 3.26 µM) and the “type of antiviral activity” value (Para 3; Para-3, depending upon cell line) was “virusstatic”. The “Virus Rating” value (Para 3; Vero) was 2.6, the EC50 (Para 3; Vero) was 1 µg/mL (≈ 3.26 µM) and the “Virus Rating” value (Reo 3; HeLa) was 2.7. The EC50 (Reo 3; HeLa) was 8 µg/mL (≈ 26 µM), the “Virus Rating” value (Reo 3; Vero) was 1.8 and the EC50 (Reo 3; Vero) was 1 µg/mL (≈ 3.26 µM). The “type of antiviral activity” value (HSV-1; HSV-1, depending upon cell line) was “virusstatic”, the “Virus Rating” value (HSV-1; HeLa) was 1.4 and the EC50 (HSV-1; Human alphaherpesvirus 1, HeLa) was 2 µg/mL (≈ 6.51 µM). For the same molecule, the EC50 (HSV-1; Human alphaherpesvirus 1, Vero) was 30 µg/mL (≈ 97.7 µM), the “Virus Rating” value (HSV-1; Vero) was 1.2 and the “Virus Rating” value (Mumps; HeLa) was 1.0. The EC50 (Mumps; HeLa) was 1 µg/mL (≈ 3.26 µM), the “Virus Rating” value (Mumps; Vero) was 1.7 and the EC50 (Mumps; Vero) was 5 µg/mL (≈ 16.3 µM). For the same molecule, the “antiviral activity in words” value (Ad-2; HeLa cells, Adenoviridae (Adeno-2)) was “Excellent antiviral activity”, the “Virus Rating” value (Ad-2; HeLa, >1.0 definite, 0.5-0.9 moderate, <0.5 slight or no activity) was 1.9 and the EC50 (Ad-2; [2]) was 9 µg/mL (≈ 29.3 µM). For the same molecule, the “antiviral activity in words” value (Cox B1; HeLa cells, Picornaviridae (Cox B1)) was “Excellent antiviral activity”, the “Virus Rating” value (Cox B1; HeLa) was 1.8 and the EC50 (Cox B1; HeLa) was 10 µg/mL (≈ 32.6 µM). For the same molecule, the “Virus Rating” value (Cox B1; Vero) was 1.7, the EC50 (Cox B1; Vero) was 15 µg/mL (≈ 48.8 µM) and the “Virus Rating” value (HSV-2; HeLa) was 1.5. For the same molecule, the EC50 (HSV-2; Human alphaherpesvirus 2, HeLa) was 4 µg/mL (≈ 13 µM), the EC50 (HSV-2; Human alphaherpesvirus 2, Vero) was 10 µg/mL (≈ 32.6 µM) and the “Virus Rating” value (HSV-2; Vero) was 1.5. The “Virus Rating” value (VV; HeLa) was 2.4, the EC50 (VV; HeLa) was 2 µg/mL (≈ 6.51 µM) and the “type of antiviral activity” value (VV; Vaccinia, depending upon cell line) was “virucidal”. For the same molecule, the “Virus Rating” value (VV; Vero) was 2.1, the EC50 (VV; Vero) was 3 µg/mL (≈ 9.77 µM) and the “Virus Rating” value (Measles; HeLa) was 1.8. For the same molecule, the EC50 (Measles; HeLa) was 2 µg/mL (≈ 6.51 µM), the EC50 (Measles; Vero) was 1 µg/mL (≈ 3.26 µM) and the “Virus Rating” value (Measles; Vero) was 2.0. The “antiviral activity in words” value (Cox B4; HeLa cells, Picornaviridae (Cox B4)) was “Excellent antiviral activity”, the “Virus Rating” value (Cox B4; HeLa) was 2.3 and the EC50 (Cox B4; [2]) was 6 µg/mL (≈ 19.5 µM). For the same molecule, the EC50 (Cox B4; Vero, read-out: ED50) was 1000 µg/mL (≈ 3260 µM), the “Virus Rating” value (Cox B4; Vero) was 0.0 and the IC50 (P388) was 270 nM.
